System: A II-infused rat
Assay: A II-infused rat model, antihypertensive activity (arterial pressure)
Type: in vivo
Conditions: 3 mg/kg id (duodenal cannula); four hours post-administration; mecamylamine ganglion blockade; A II infusion […]
Method: In accordance with their ability to antagonize angiotensin II, the compounds of this invention show antihypertensive activity in the following A II-infused rat model. Rats are anesthetized with Dial-Urethane(0.60 mL/kg, ip) and the trachea cannulated with PE 240. Either one femoral artery and both femoral veins or the carotid artery and the corresponding jugular vein are cannulated with PE 50. If the jugular vein is cannulated, two cannulas are placed in the one vein. The initial portion of the duodenum (just distal to the stomach) is cannulated with PE 50 via a small midline incision. Arterial pressure and heart rate are measured from the arterial cannula. Ten to 15 min are allowed following surgery for stabilization of arterial pressure. Ganglion blockage is then produced by intravenous administration of mecamylamine at 3 mg/kg (1 mL/kg of a 3 mg/mL solution). Ganglion blockade causes a fall in arterial pressure of about 50 mmHg. Mecamylamine is given every 90 min throughout the remainder of the experiment. An A II infusion is then begun into the other venous cannula at 0.25 μg/kg/min (at 9.6 μL/min). The A II infusion returns arterial pressure to or slightly above the control level. Once arterial pressure has stabilized with the A II infusion, baseline values for mean arterial pressure (MAP) and heart rate are taken. […]

O=c1c(O)c(-c2ccccc2-c2ccc(CNc3nc(C(F)(F)F)nc4c3CCCC4)cc2)c1=O [Example 1, 3-hydroxy-4-[4'-[[[5,6,7,8-tetrahydro-2-(trifluoromethyl)-4-quinazolinyl]amino]methyl][1,1'-biphenyl]-2-yl]-3-cyclobutene-1,2-dione]
average lowering of the A II dependent blood pressure: 52%

Reference: patent US5330989A, “Heterocycles substituted with biphenyl-3-cyclobutene-1,2-dione derivatives” (American Home Products Corporation, priority 1992, dated 1994)
